Our source for the IC50 values is patent US10407422B2, “Triazolopyridine inhibitors of myeloperoxidase” (priority 2015, dated 2019).

Assay [1] deals with T1, myeloperoxidase (MPO) (Homo sapiens (Human), UniProt P05164). The assay is described as follows: MPO peroxidation assay (Amplex Red assay). The conditions noted are these: potency range class. Format: biochemical. An outline of the steps: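 IC50 values come from a four-parameter fit of rates taken from the linear 180-540 s portion of a 15 min kinetic read of resorufin (Ex 535/Em 590 nm). Amplex Red (200 μM) plus 10 mM H2O2 was added after a 10 min room-temperature preincubation of inhibitor with 200 pM MPO and 40 nM H2O2 in 100 mM KPi, pH 7.4.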

In assay [2] the target is T1, myeloperoxidase (MPO). Briefly: MPO chlorination assay (APF assay). In kind it is biochemical. To be noted: potency range class. An outline of the steps:
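Chlorinating activity followed by APF cleavage to fluorescein (485/535 nm, 3 min kinetic read) after adding APF and 10 μM H2O2. Beforehand, 200 pM enzyme, compound and 120 mM NaCl sat 10 min at room temperature in 100 mM KPi, pH 7.4. Initial-rate slopes gave % inhibition; IC50 by Hill-slope fit.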

SMILES strings stand for the structures.

T1 sequence (P05164 49-745): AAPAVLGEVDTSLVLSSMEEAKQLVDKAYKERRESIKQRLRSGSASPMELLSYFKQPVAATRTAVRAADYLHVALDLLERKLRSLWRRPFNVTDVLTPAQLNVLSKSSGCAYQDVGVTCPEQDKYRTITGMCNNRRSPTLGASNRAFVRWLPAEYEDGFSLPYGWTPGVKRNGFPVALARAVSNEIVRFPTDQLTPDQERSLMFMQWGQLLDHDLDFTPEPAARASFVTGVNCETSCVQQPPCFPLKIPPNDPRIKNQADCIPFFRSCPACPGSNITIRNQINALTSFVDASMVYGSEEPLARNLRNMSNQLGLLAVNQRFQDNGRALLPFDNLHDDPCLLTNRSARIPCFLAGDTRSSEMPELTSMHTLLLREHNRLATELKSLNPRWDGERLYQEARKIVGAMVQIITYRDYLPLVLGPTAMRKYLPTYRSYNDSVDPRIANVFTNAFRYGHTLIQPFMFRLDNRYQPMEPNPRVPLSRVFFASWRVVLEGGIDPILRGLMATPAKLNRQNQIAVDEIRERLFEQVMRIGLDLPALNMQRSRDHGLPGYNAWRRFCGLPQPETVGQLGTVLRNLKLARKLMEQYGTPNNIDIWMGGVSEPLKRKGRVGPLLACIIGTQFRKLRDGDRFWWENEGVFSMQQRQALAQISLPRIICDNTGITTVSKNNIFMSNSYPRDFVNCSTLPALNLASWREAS

As a reminder, the IC50 is the midpoint of a concentration-inhibition curve. A lower IC50 goes with inhibition by little substance. Regarding `Nc1cc(Cc2cnn(Cc3cn(-c4ccccc4)nn3)c2)c2nn[nH]c2n1` [Example 116, 7-((1-((1-Phenyl-1H-1,2,3-triazol-4-yl)methyl)-1H-pyrazol-4-yl)methyl)-3H-[1,2,3]triazolo[4,5-b]pyridin-5-amine], the 50% inhibitory concentration (IC50) in assay [1] was in the range of 1 to 100 nM; in assay [2] it was 101 to 999 nM.
For `CN1CCN(c2ccc(Cn3cc(Cc4cc(N)nc5[nH]nnc45)cn3)cc2)CC1` [Example 112, 7-((1-(4-(4-Methylpiperazin-1-yl)benzyl)-1H-pyrazol-4-yl)methyl)-3H-[1,2,3]triazolo[4,5-b]pyridin-5-amine], in that order: 1 to 100 nM and 101 to 999 nM.
For `Nc1cc(Cc2cnn(Cc3cccc([C@H]4CNC(=O)C4)c3)c2)c2nn[nH]c2n1` [Example 188, (S)-4-(3-((4-((5-Amino-3H-[1,2,3]triazolo[4,5-b]pyridin-7-yl)methyl)-1H-pyrazol-1-yl)methyl)phenyl)pyrrolidin-2-one], in that order: 1 to 100 nM and 101 to 999 nM.
In the case of `CCCNC(=O)c1ccc(Cn2cc(Cc3cc(N)nc4[nH]nnc34)cn2)cc1` [Example 88, 4-{[4-({5-Amino-3H-[1,2,3]triazolo[4,5-b]pyridin-7-yl}methyl)-1H-pyrazol-1-yl]methyl}-N-propylbenzamide], the values for the IC50 in assay [1] and in assay [2] were 1 to 100 nM and 101 to 999 nM, respectively.
For `Nc1cc(Cn2nnc(-c3ccccc3)n2)c2nn[nH]c2n1` [Example 169, 7-[(5-Phenyl-2H-1,2,3,4-tetrazol-2-yl)methyl]-3H-[1,2,3]triazolo[4,5-b]pyridin-5-amine], in that order: 101 to 999 nM and 101 to 999 nM.
For `Cc1cccc(-n2cc(Cc3cc(N)nc4[nH]nnc34)cn2)n1` [Example 20, 7-((1-(6-Methylpyridin-2-yl)-1H-pyrazol-4-yl)methyl)-3H-[1,2,3]triazolo[4,5-b]pyridin-5-amine] the same measures were 1 to 100 nM and 1 to 100 nM.
For `N#Cc1cccc(Cn2cc(Cc3cc(N)nc4[nH]nnc34)cn2)c1` [Example 158, 3-{[4-({5-Amino-3H-[1,2,3]triazolo[4,5-b]pyridin-7-yl}methyl)-1H-pyrazol-1-yl]methyl}benzonitrile], in that order: 1 to 100 nM and 1 to 100 nM.
`CC(C)C1C[C@@H](c2cccc(Cn3cc(Cc4cc(N)nc5[nH]nnc45)cn3)c2)CN1` (stereo partly drawn) [Example 205, 7-{[1-({3-[(3S)-5-(propan-2-yl)pyrrolidin-3-yl]phenyl}methyl)-1H-pyrazol-4-yl]methyl}-3H-[1,2,3]triazolo[4,5-b]pyridin-5-amine]: the half-maximal inhibitory concentration (IC50) in assay [1] and in assay [2] was 1 to 100 nM throughout.
In the case of `Nc1cc(Cc2cnn(Cc3cccc(N4CC5C(N)C5C4)c3)c2)c2nn[nH]c2n1` [Example 229, (1R,5S,6S)-3-(3-{[4-({5-Amino-3H-[1,2,3]triazolo[4,5-b]pyridin-7-yl}methyl)-1H-pyrazol-1-yl]methyl}phenyl)-3-azabicyclo[3.1.0]hexan-6-amine], the IC50 in assay [1] is 101 to 999 nM; in assay [2], 1 to 100 nM.
For `Nc1cc(Cc2cnn(Cc3cccc([C@@H]4CCNC4)c3)c2)c2nn[nH]c2n1` [Example 190], in that order: 1 to 100 nM and 1 to 100 nM.
For `Nc1cc(Cc2cnn(Cc3cccc(OC[C@H]4CCCN4)c3)c2)c2nn[nH]c2n1` [Example 243, 7-{[1-({3-[(2R)-Pyrrolidin-2-ylmethoxy]phenyl}methyl)-1H-pyrazol-4-yl]methyl}-3H-[1,2,3]triazolo[4,5-b]pyridin-5-amine], the IC50 in assay [1] and in assay [2] was 1 to 100 nM throughout.
For `Nc1cc(Cc2cnn(Cc3ccc(C(=O)NCCO)cc3)c2)c2nn[nH]c2n1` [Example 76, 4-{[4-({5-Amino-3H-[1,2,3]triazolo[4,5-b]pyridin-7-yl}methyl)-1H-pyrazol-1-yl]methyl}-N-(2-hydroxyethyl)benzamide], the figures for the concentration for half-maximal inhibition (IC50) in assay [1] and in assay [2] were 1 to 100 nM and 101 to 999 nM, respectively.
Regarding `Cc1c(Cc2cc(N)nc3[nH]nnc23)cnn1-c1ccc(F)cc1` [Example 2, 7-((1-(4-Fluorophenyl)-5-methyl-1H-pyrazol-4-yl)methyl)-3H-triazolo[4,5-b]pyridin-5-amine], the IC50 in assay [1] and in assay [2] was 101 to 999 nM in each case.
For `Nc1cc(Cc2cnn(Cc3cncc(-c4ccccc4)c3)c2)c2nn[nH]c2n1` [Example 125, 7-((1-((5-Phenylpyridin-3-yl)methyl)-1H-pyrazol-4-yl)methyl)-3H-[1,2,3]triazolo[4,5-b]pyridin-5-amine], the IC50 in assay [1] and in assay [2] was 1 to 100 nM each time.
With `Nc1cc(Cc2cnn(Cc3ccc(Cl)cc3Cl)c2)c2nn[nH]c2n1` [Example 117, 7-((1-(2,4-Dichlorobenzyl)-1H-pyrazol-4-yl)methyl)-3H-[1,2,3]triazolo[4,5-b]pyridin-5-amine], the IC50 in assay [1] lay in the range of 1 to 100 nM; in assay [2] it was 101 to 999 nM.
Regarding `Nc1cc(Cc2cnn(Cc3ccc4c(c3)CNC4)c2)c2nn[nH]c2n1` [Example 176, 7-((1-(Isoindolin-5-ylmethyl)-1H-pyrazol-4-yl)methyl)-3H-[1,2,3]triazolo[4,5-b]pyridin-5-amine], the IC50 in assay [1] and in assay [2] was 1 to 100 nM in each case.
As to `Nc1cc(Cc2cnn(Cc3cn(Cc4ccccc4)nn3)c2)c2nn[nH]c2n1` [Example 107, 7-((1-((1-Benzyl-1H-1,2,3-triazol-4-yl)methyl)-1H-pyrazol-4-yl)methyl)-3H-[1,2,3]triazolo[4,5-b]pyridin-5-amine], the concentration for half-maximal inhibition (IC50) is 1 to 100 nM in assay [1] and 101 to 999 nM in assay [2].
For `Nc1cc(Cc2cnn(Cc3cccc(-c4nccs4)c3)c2)c2nn[nH]c2n1` [Example 177, 7-((1-(3-(Thiazol-2-yl)benzyl)-1H-pyrazol-4-yl)methyl)-3H-[1,2,3]triazolo[4,5-b]pyridin-5-amine], in that order: 1 to 100 nM and 101 to 999 nM.
For `Nc1cc(Cc2cnn(Cc3ccc4c(c3)CC[C@H]4N)c2)c2nn[nH]c2n1` [Example 268, 7-[(1-{[(1R)-1-Amino-2,3-dihydro-1H-inden-5-yl]methyl}-1H-pyrazol-4-yl)methyl]-3H-[1,2,3]triazolo[4,5-b]pyridin-5-amine] the same measures were 1 to 100 nM and 1 to 100 nM.
For `Nc1cc(Cc2cnn(Cc3cccc(CN4CCOCC4)c3)c2)c2nn[nH]c2n1` [Example 256, 7-[(1-{[3-(Morpholin-4-ylmethyl)phenyl]methyl}-1H-pyrazol-4-yl)methyl]-3H-[1,2,3]triazolo[4,5-b]pyridin-5-amine] the same measures were 101 to 999 nM and 101 to 999 nM.
Take `NCc1ccc(Cn2cc(Cc3cc(N)nc4[nH]nnc34)cn2)cc1` [Example 250, 7-[(1-{[4-(Aminomethyl)phenyl]methyl}-1H-pyrazol-4-yl)methyl]-3H-[1,2,3]triazolo[4,5-b]pyridin-5-amine]: the IC50 in assay [1] and in assay [2] was 1 to 100 nM throughout.
Take `CN(C)CCOc1ccc2cc(Cn3cc(Cc4cc(N)nc5[nH]nnc45)cn3)ccc2c1` [Example 69, 7-((1-((6-(2-(Dimethylamino)ethoxy)naphthalen-2-yl)methyl)-1H-pyrazol-4-yl)methyl)-3H-[1,2,3]triazolo[4,5-b]pyridin-5-amine]: the values for the concentration for half-maximal inhibition (IC50) in assay [1] and in assay [2] were 101 to 999 nM and 1 to 100 nM, respectively.
For `Nc1cc(Cc2cnn(Cc3ccccc3Oc3ccccc3)c2)c2nn[nH]c2n1` [Example 264, 7-({1-[(2-Phenoxyphenyl)methyl]-1H-pyrazol-4-yl}methyl)-3H-[1,2,3]triazolo[4,5-b]pyridin-5-amine], in that order: 1 to 100 nM and 101 to 999 nM.
In the case of `Nc1cc(Cc2cnn(Cc3ccccc3Cl)c2)c2nn[nH]c2n1` [Example 57, 7-((1-(2-Chlorobenzyl)-1H-pyrazol-4-yl)methyl)-3H-[1,2,3]triazolo[4,5-b]pyridin-5-amine], the IC50 in assay [1] and in assay [2] was 1 to 100 nM each time.
As for `Nc1cc(Cc2cnn(Cc3cccc(OCc4ccccc4)c3)c2)c2nn[nH]c2n1` [Example 99, 7-((1-(3-(Benzyloxy)benzyl)-1H-pyrazol-4-yl)methyl)-3H-[1,2,3]triazolo[4,5-b]pyridin-5-amine], the IC50 in assay [1] and in assay [2] was 1 to 100 nM each time.
With `Nc1cc(Cc2ccn(-c3ccccc3)n2)c2nn[nH]c2n1` [Example 33, 7-((1-Phenyl-1H-pyrazol-3-yl)methyl)-3H-[1,2,3]triazolo[4,5-b]pyridin-5-amine], the concentration for half-maximal inhibition (IC50) in assay [1] and in assay [2] was 101 to 999 nM throughout.
On to `CC(C)(C)c1cccc(Cn2cc(Cc3cc(N)nc4[nH]nnc34)cn2)c1` [Example 134, 7-({1-[(3-tert-Butylphenyl)methyl]-1H-pyrazol-4-yl}methyl)-3H-[1,2,3]triazolo[4,5-b]pyridin-5-amine], for which the half-maximal inhibitory concentration (IC50) in assay [1] and in assay [2] was 1 to 100 nM throughout.
Regarding `Nc1cc(Cc2cnn(Cc3ccc4cnccc4c3)c2)c2nn[nH]c2n1` [Example 127, 7-((1-(Isoquinolin-6-ylmethyl)-1H-pyrazol-4-yl)methyl)-3H-[1,2,3]triazolo[4,5-b]pyridin-5-amine], the IC50 in assay [1] and in assay [2] was 101 to 999 nM each time.
For the compound `Nc1cc(Cc2cnn(Cc3cccc(OC[C@@H]4CCNC4)c3)c2)c2nn[nH]c2n1` [Example 244], the IC50 in assay [1] and in assay [2] was 1 to 100 nM each time.
`Nc1cc(Cc2cnn(Cc3ccccc3C3CCNCC3)c2)c2nn[nH]c2n1` [Example 215, 7-[(1-{[2-(Piperidin-4-yl)phenyl]methyl}-1H-pyrazol-4-yl)methyl]-3H-[1,2,3]triazolo[4,5-b]pyridin-5-amine]: the results for the IC50 in assay [1] and in assay [2] were 1 to 100 nM and 101 to 999 nM, respectively.
